Experiments:
[1] = system: MDA-MB-435-GFP breast tumors; assay: Orthotopically implanted human MDA-MB-435-GFP breast tumor mouse xenograft (Example 5); format: in vivo; settings: 33 days of treatment; FIG. 1; dose not stated
Method: The experiment was conducted essentially as described above in Example 3, except that the tumors of GFP-transfected H-460 cells were replaced with MDA-MB-435-GFP breast tumors, with surgical orthotopic implantation directly into breast tissue of female CD-1 nude animals. The number of animals in each group was increased to 15. […] (See, e.g., Ross et al (2000) Nat Genet 24:227-235 and Ellison et al. Mol Pathol. (2002) 55:294-299.)
In the present MDA-MB-435-GFP breast cancer orthotopic study, administration of compound A was initiated 21 days after tumor fragment implantation to the mammary fat pad of female nude mice, at time at which the volume of primary tumors reached ˜150 mm^3. Taxotere, a positive chemotherapeutic agent control, was administered i.v. once weekly (15 mg/kg). After mean tumor volume in the vehicle control group exceeded 1 cm^3, animals were sacrificed (33 days of treatment) and primary tumors were excised from all animals and weighed.

[2] = system: H460 tumor cells; assay: Subcutaneous H460 lung tumor xenograft, tumor growth delay study in combination with chemotherapeutics (Example 6); format: in vivo, mouse; settings: Cmpd A 60 mg/kg p.o., paclitaxel 15 mg/kg i.v., carboplatin 120 mg/kg i.p.
Method: This study was used to determine the effect of combined treatments where compounds and methods of the invention were combined with conventional anti-tumor therapies. These experiments were performed essentially as described above in Example 3, except that 1×10^7 H460 tumor cells were implanted subcutaneously to the flanks of female Harlan nude animals. The number of animals in each group was 10. Treatments were initiated when tumors reached an average size of approximately 100 mm^3.
The study design was representative of tumor progression studies of the TGD (Tumor Growth Delay) type, using a protocol that required individual animals to be humanely euthanized after reaching a set endpoint of tumor volume greater than or equal to 2 cc.
These two chemotherapeutic agents are of two broad classes of conventional anti-tumor therapeutics: microtubule poisons (paclitaxcel); and DNA-directed agents, including the sub-classification of DNA alkylating agents (carboplatin). In tumor-bearing human patients, conventional anti-tumor therapy commonly use of one or both classes of chemotherapeutic agents.
The study was initiated with administration of conventional anti-tumor treatment or vehicle control, and followed one day after with administration of Compound A or vehicle control. […] (See Table 11 and Table 12 for compound and chemotherapeutic agent dosing schedule.)
Tumor progression was determined for each treatment group and is presented as median Time-to-Endpoint (TTE).

[3] = system: REDD1/RTP801 gene expression; assay: REDD1/RTP801 gene expression in Kelly neuroblastoma cells; format: cell-based; settings: 20 μM, vs DMSO control
Method: (§1) To identify compounds useful in the methods of the present invention, the following studies were performed. The effect of compounds of the present invention on expression of various genes associated with anti-tumor activity (e.g., genes having anti-proliferative activity, genes having pro-apoptotic activity, genes having anti-tumor activity, etc.). In these experiments, the effect of compounds on BNIP3, BNIP3L, NDRG1, CDKN1C, and REDD1/RTP801 gene expression in various types of cultured tumor cells line was examined, including Hep3B cells (human hepatocellular carcinoma), Kelly neuroblastoma cells, and MCF7 cells (human breast cancer)
(§2) The effects of various compounds of the present invention on the expression of genes associated with tumor growth and progression were examined in Kelly neuroblastoma cells as follows. Kelly neuroblastoma cells were grown in RPMI media. […]
(§3) RNA was isolated from the Kelly neuroblastoma cells using a commercial kit and used for the preparation of cDNA. BNIP3, CDKN1C, and 18S RNA levels were measured using commercial kits (18S, Applied Biosystems cat#4319413E); BNIP3, Applied Biosystems cat#HS00969293 MH). […] Kelly cell NDRG1 and BNIP3L mRNA levels were measured by Affymetrix microarray in a separate study. […]

[4] = system: BNIP3L gene expression; assay: BNIP3L gene expression in Kelly neuroblastoma cells (Affymetrix microarray); format: cell-based; settings: 20 μM, 6 hours, vs 0.5% DMSO control
Method: as §1, §2, §3

SMILES	reduction of mean tumor volumes compared to vehicle control [1]	% TGD, Percent Tumor Growth Delay (vs. Group control) [2] [%]	T-C (Test-control, difference of medians) [2] [days]	% TGD, Percent Tumor Growth Delay (vs. Group control) ([2]; listed as Cmpd. A) [%]	Median TTE (Time-to-Endpoint, tumor volume >= 2 cc) ([2]; vehicle group 16.2) [days]	fold-increase in REDD1/RTP801 mRNA expression [3] [fold]	fold-increase in BNIP3L mRNA expression [4] [fold]
O=C(O)CNC(=O)c1nc(Cl)c2ccccc2c1O [Compound A, [(1-Chloro-4-hydroxy-isoquinoline-3-carbonyl)-amino]-acetic acid]	approximately 20%	9	1.5	9	17.7	–	–
COc1ccc(Oc2ccc3c(O)c(C(=O)NCC(=O)O)ncc3c2)cc1 [Compound C, {[4-Hydroxy-7-(4-methoxy-phenoxy)-isoquinoline-3-carbonyl]-amino}-acetic acid]	–	–	–	–	–	3.6	5.9

— patent US8530404B2, “Compounds and methods for treatment of cancer” (FibroGen, Inc., priority 2005, dated 2013)
